Test results published in ChEMBL document CHEMBL1130420 (J Med Chem, 1997).

Experiments:
[1] = molecular target: T1, Estrogen receptor (Mus musculus) (UniProt O08537+P19785); test: (§1) Uterine weight after 9 day treatment at 0.47 ug by oral gavage to ovariectomised mice with estrone; type: functional, tissue-based; conditions: Uterus
Estrogen receptor [2] = molecular target: T2, Estrogen receptor (Homo sapiens, UniProt Q92731+P03372); test: Stimulation of alkaline phosphatase activity in human endometrial Ishikawa cells with 1 nM E2 estradiol; type: functional, cell-based
[3] = molecular target: T1, Estrogen receptor (Mus musculus); test: Uterine weight after 9 day treatment at 47 ug by oral gavage to ovariectomised mice with estrone; type: functional, tissue-based; conditions: Uterus
Estrogen receptor [4] = molecular target: T2, Estrogen receptor
Description: Inhibition of estradiol binding to estrogen receptor in Human Breast cancer cytosol (3.3% ethanol)

[5] = molecular target: T1, Estrogen receptor (Mus musculus); test: (§2) Uterine weight after 9 day treatment at 1.6 ug by oral gavage to ovariectomised mice with estrone; type: functional, tissue-based; conditions: Uterus
[6] = molecular target: T1, Estrogen receptor (Mus musculus); test: (§3) Uterine weight after 9 day treatment at 16 ug by oral gavage to ovariectomised mice without estrone; type: functional, tissue-based; conditions: Uterus
[7] = molecular target: T1, Estrogen receptor (Mus musculus); test: (§4) Uterine weight after 9 day treatment at 0.47 ug by oral gavage to ovariectomised mice without estrone; type: functional, tissue-based; conditions: Uterus
[8] = molecular target: T1, Estrogen receptor (Mus musculus); test: (§5) Uterine weight after 9 day treatment at 4.7 ug by oral gavage to ovariectomised mice without estrone; type: functional, tissue-based; conditions: Uterus
[9] = molecular target: T1, Estrogen receptor (Mus musculus); test: (§6) Uterine weight after 9 day treatment at 47 ug by oral gavage to ovariectomised mice without estrone; type: functional, tissue-based; conditions: Uterus
[10] = molecular target: T1, Estrogen receptor (Mus musculus); test: as §1; type: functional, tissue-based; conditions: Uterus; remark: listed apart in the source
[11] = molecular target: T1, Estrogen receptor (Mus musculus); test: (§7) Uterine weight after 9 day treatment at 16 ug by oral gavage to ovariectomised mice with estrone; type: functional, tissue-based; conditions: Uterus
[12] = molecular target: T1, Estrogen receptor (Mus musculus); test: as §2; type: functional, tissue-based; conditions: Uterus; remark: listed apart in the source
Estrogen receptor [13] = molecular target: T2, Estrogen receptor; remark: listed apart in the source
Description: Apparent inhibition constant for estrogen receptor in Human uterine cytosol in 3.3%ethanol

[14] = molecular target: T1, Estrogen receptor (Mus musculus); test: as §3; type: functional, tissue-based; conditions: Uterus; remark: listed apart in the source
[15] = molecular target: T1, Estrogen receptor (Mus musculus); test: as §4; type: functional, tissue-based; conditions: Uterus; remark: listed apart in the source
[16] = molecular target: T1, Estrogen receptor (Mus musculus); test: Uterine weight after 9 day treatment at 4.7 ug by oral gavage to ovariectomised mice with estrone; type: functional, tissue-based; conditions: Uterus
[17] = molecular target: T1, Estrogen receptor (Mus musculus); test: as §7; type: functional, tissue-based; conditions: Uterus; remark: listed apart in the source
[18] = molecular target: T1, Estrogen receptor (Mus musculus); test: as §5; type: functional, tissue-based; conditions: Uterus; remark: listed apart in the source
[19] = molecular target: T1, Estrogen receptor (Mus musculus); test: Uterine weight after 9 day treatment at 1.6 ug by oral gavage to ovariectomised mice without estrone; type: functional, tissue-based; conditions: Uterus
Estrogen receptor [20] = molecular target: T2, Estrogen receptor; conditions: t-47d
Description: Inhibition of estradiol-stimulated T-47D cell proliferation.

[21] = molecular target: T1, Estrogen receptor (Mus musculus); test: as §6; type: functional, tissue-based; conditions: Uterus; remark: listed apart in the source
[22] = molecular target: T1, Estrogen receptor (Mus musculus); test: as §6; type: functional, tissue-based; conditions: Uterus; remark: listed apart in the source
Estrogen receptor [23] = molecular target: T2, Estrogen receptor; conditions: t-47d; remark: listed apart in the source
Description: Apparent binding affinity against estradiol-stimulated T-47D cell proliferation

[24] = molecular target: T1, Estrogen receptor (Mus musculus); test: as §5; type: functional, tissue-based; conditions: Uterus; remark: listed apart in the source
Estrogen receptor [25] = molecular target: T2, Estrogen receptor; test: Relative Binding Affinity for estrogen receptor in Human Breast cancer or normal uterine cytosol in 3.3%ethanol compared to estradiol; type: protein assay; conditions: Uterus

T1 sequence (O08537 whole entry, looked up): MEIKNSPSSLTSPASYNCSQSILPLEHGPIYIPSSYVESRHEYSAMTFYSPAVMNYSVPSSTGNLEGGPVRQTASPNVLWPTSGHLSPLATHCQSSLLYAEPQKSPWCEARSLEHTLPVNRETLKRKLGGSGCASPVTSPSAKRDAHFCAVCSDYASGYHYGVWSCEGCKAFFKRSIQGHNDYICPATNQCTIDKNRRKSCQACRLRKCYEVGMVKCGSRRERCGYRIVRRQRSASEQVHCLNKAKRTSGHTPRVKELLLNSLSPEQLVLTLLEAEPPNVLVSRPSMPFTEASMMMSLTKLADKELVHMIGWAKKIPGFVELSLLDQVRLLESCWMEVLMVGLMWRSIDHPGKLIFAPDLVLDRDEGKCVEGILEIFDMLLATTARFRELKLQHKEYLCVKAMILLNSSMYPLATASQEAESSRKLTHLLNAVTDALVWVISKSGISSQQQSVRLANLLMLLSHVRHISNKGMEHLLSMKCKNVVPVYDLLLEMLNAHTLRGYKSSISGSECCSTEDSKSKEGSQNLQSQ
T1 sequence (P19785 whole entry, looked up): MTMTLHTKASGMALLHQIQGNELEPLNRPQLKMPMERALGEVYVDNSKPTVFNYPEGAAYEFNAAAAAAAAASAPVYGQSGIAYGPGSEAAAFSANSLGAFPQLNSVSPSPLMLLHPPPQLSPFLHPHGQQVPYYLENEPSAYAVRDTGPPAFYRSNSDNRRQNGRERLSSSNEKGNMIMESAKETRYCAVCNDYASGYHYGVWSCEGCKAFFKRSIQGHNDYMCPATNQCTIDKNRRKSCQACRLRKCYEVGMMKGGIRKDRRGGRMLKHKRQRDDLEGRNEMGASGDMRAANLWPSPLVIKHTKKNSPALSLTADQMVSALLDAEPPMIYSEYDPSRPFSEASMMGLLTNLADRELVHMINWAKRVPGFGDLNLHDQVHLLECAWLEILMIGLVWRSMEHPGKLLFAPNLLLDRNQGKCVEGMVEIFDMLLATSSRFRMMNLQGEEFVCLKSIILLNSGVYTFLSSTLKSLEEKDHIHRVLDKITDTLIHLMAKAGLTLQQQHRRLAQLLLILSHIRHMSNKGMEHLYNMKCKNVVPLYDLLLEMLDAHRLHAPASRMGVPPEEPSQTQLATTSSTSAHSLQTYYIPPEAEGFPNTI

Row | Weight [3] [mg] | Ki (Estrogen receptor [4]) [nM] | Weight [5] [mg] | Weight [9] [mg] | Weight [10] [mg] | Weight [11] [mg] | Weight [14] [mg] | Weight [15] [mg] | Weight [16] [mg] | Weight [19] [mg] | IC50 (Estrogen receptor [20]) [nM] | Ki (Estrogen receptor [23]) [nM] | Weight [24] [mg] | further results | SMILES
1 | 31.7 | 4.71 | 53.4 | 21.1 | 72.9 | 28.9 | 19.4 | 19 | 33.3 | 24.1 | 0.14 | 0.016 | 24.5 | Weight [1]: 84 mg; IC50 (Estrogen receptor [2]): 1.3 nM; Ki (Estrogen receptor [2]): 0.023 nM; Weight [6]: 24 mg; Weight [7]: 21 mg; Weight [8]: 24.7 mg; Weight [12]: 53 mg; Ki (Estrogen receptor [13]): 11.14 nM; Weight [17]: 29.2 mg; Weight [18]: 35.3 mg; Weight [21]: 28.1 mg; Weight [22]: 25 mg | CC1=C(c2ccc(OC(=O)C(C)(C)C)cc2)[C@H](c2ccc(OCCN3CCCCC3)cc2)Oc2cc(OC(=O)C(C)(C)C)ccc21
2 | 61.1 | > 270 | 88.6 | 18 | 83.1 | 75.7 | 15.7 | 16.5 | 91.2 | 17.2 | 36.2 | 4.22 | 19.8 | RBA (Estrogen receptor [25]): < 0.04 | CC1=C(c2ccc(OC(=O)C(C)(C)C)cc2)[C@@H](c2ccc(OCCN3CCCCC3)cc2)Oc2cc(OC(=O)C(C)(C)C)ccc21
3 |  |  |  |  |  |  |  |  |  |  | 4.6 | 0.525 |  |  | Oc1ccc(C2=Cc3ccc(O)cc3OC2c2ccc(OCCN3CCCCC3)cc2)cc1 (stereo unspecified)
